Measurements published in US6900239B2, “Tumor chemopotentiation using isocoumarin derivatives” (ILWZ ILEX Products, Inc., priority 2000, dated 2005).

What was measured:
[1] = tested on: MDAMB-435 human breast tumor xenografts; experiment: MDAMB-435 orthotopic model, NM-3 with 5-Fluorouracil; format: in vivo, female NCRNU nude mice; conditions: 5-FU 10 mpk q14d; 0,14 alone
Method: In order to evaluate the antitumor activity of NM-3 in combination with 5-Fluorouracil (5-FU) vs. MDAMB-435 human breast tumor xenografts, female NCRNU nude mice were implanted with MDAMB-435 cells into the subaxillary mammary fat pad. When the tumors were between 50 and 80 mm^3, NM-3 was administered via intraperitoneal (i.p.) injection daily at 10 and 100 mg/kg; 5-FU was administered via i.p. injection on days 0 and 14, at 10 mg/kg. Mice were weighed twice weekly, and tumor measurements were taken by calipers twice weekly. Mice were euthenized at the end of the treatment period. Upon termination, the mice were weighed, sacrificed and their tumors were excised.
Initial studies were conducted with 5-FU to determine the optimal dose of this agent when administered in combination with NM-3.

colon 26 adenocarcinoma = experiment: Combination with cyclophosphamide, survival; format: in vivo, BALB/c mice; conditions: Cyclophosphamide 300 mg/kg i.v. day 14 alone
Method: To determine the effect on tumor growth of NM-3 treatment combined with simultaneous cyclophosphamide treatment, colon 26 adenocarcinoma cells (5×10^4 cells per mouse) were subcutaneously transplanted into BALB/c mice (female, 7 weeks old) in the inguinal area. NM-3 was continuously orally administered from day 1 to day 72 after the transplantation except on day 14 when cyclophosphamide was dosed.

IMC carcinoma = experiment: Combination with cyclophosphamide, tumor weight; format: in vivo, CDF1 mice; conditions: Cyclophosphamide 300 mg/kg i.v. day 14 alone
Method: To determine the effect on IMC carcinoma growth of NM-3 treatment combined with simultaneous cyclophosphamide treatment, IMC carcinoma cells (1×10^6 cells per mouse) were subcutaneously transplanted into CDF1 mice (female, 10 weeks old) in the inguinal area. NM-3 which was dissolved using 5% DMSO+Tween80, was continuously orally administered from day 1 to day 41 after transplantation except on day 14, when cyclophosphamide (300 mg/kg) was injected intravenously.

[2] = in vivo; cited from earlier work
[3] = mice and dogs; cited from earlier work
[4] = tested on: transplantable mouse solid tumors; conditions: oral administration; cited from earlier work
cultured tumor cells = conditions: cited from earlier work
[5] = tested on: MDAMB-435 human breast tumor xenografts; experiment: MDAMB-435 orthotopic model, NM-3 with paclitaxel, second study (100 mm^3) and delivery routes; format: in vivo, female NCRNU nude mice; conditions: Taxol 12.5 mg/kg q7d alone
Method: In order to determine the effect of the combination of NM-3 with the cytotoxic drug, paclitaxel on human breast tumor xenografts, female NCRNU nude mice were implanted with MDAMB-435 cells into the subaxillary mammary fat pad. NM-3 was administered via intraperitoneal (i.p.) injection daily at doses ranging from 10-100 mg/kg; paclitaxel was administered via i.p. injection every 7 days, starting on day 0, at 10 mg/kg.
In a second study, treatment was initiated when tumor volumes reached 100 mm^3. Paclitaxel was administered at the fixed dose of 12.5 mg/kg, q7d and NM-3 was dosed at 10 and 100 mg/kg, i.p. daily for 28 days.
A comparison was also made between different delivery routes of NM-3 in the combination studies. NM-3 given i.p. daily, bid, and continuously using Alzet mini osmotic pumps in combination with paclitaxel was evaluated for effectiveness in reducing tumor growth.

[6] = tested on: MDAMB-435 human breast tumor xenografts; experiment: MDAMB-435 orthotopic model, NM-3 with paclitaxel, first study; format: in vivo, female NCRNU nude mice; conditions: for % Tumor Growth Inhibition: Taxol 10 mg/kg q7d i.p. alone
Source text: In order to determine the effect of the combination of NM-3 with the cytotoxic drug, paclitaxel on human breast tumor xenografts, female NCRNU nude mice were implanted with MDAMB-435 cells into the subaxillary mammary fat pad. […]

[7] = tested on: Human umbilical vein endothelial cells (HUVEC); experiment: HUVEC colony formation with a constant amount of gamma radiation; format: cell-based
Method: Human umbilical vein endothelial cells (HUVEC) were exposed to a constant amount of gamma radiation in the presence or absence of various concentrations of NM-3 in the culture medium. The numbers of HUVEC colonies that formed following the different treatments were recorded and normalized to the number of colonies formed under control (no NM-3) conditions and the results are shown in FIG. 1. […] For comparison, HUVEC cells were treated with either angiostatin or endostatin, two additional anti-angiogenic proteins.

[8] = tested on: Lewis Lung carcinoma (LLC) tumors; experiment: Radiation sensitivity of Lewis Lung carcinoma in vivo; set-up: species or system C57BL/6 female mice; conditions: combined with X-ray treatment
Method: To determine whether NM-3 treatment increases the radiation sensitivity of tumors in vivo, Lewis Lung carcinoma (LLC) tumors were established in C57BL/6 female mice (Frederick Cancer Research Institute) prior to NM-3 and radiation treatment. LLC cells (1×10^6 cells) were injected in the right hind limb of the mice and tumors were allowed to grow a volume of 250-350 mm^3. Tumor volumes were determined by direct measurements with calipers calculated by the formula: V=length×width×depth/2. Mice were then divided into groups and treated with NM-3 (100 mg/kg total) or PBS for two days before beginning radiation therapy. Animals then received NM-3 (25 mg/kg/day, i.p.) or PBS approximately four hours prior to radiation treatment. Tumors were irradiated using a GE Maxitron X-ray generator operating at 150 kV, 30 mA, using a 1 mm aluminum filter at a dose rate of 188 cGy/minute. Mice were shielded with lead except for the tumor-bearing area in the hind limb. Treatments and tumor measurements continued for a period of 17 days (see FIG. 4). […] Whereas control tumors reached 8 initial tumor volumes (Vo) after 8 days, X-ray treated tumors required 16 days to grow to this size. […] For comparison, data are plotted with two additional anti-angiogenic drugs, antiostatin and endostatin (see FIGS. 3B and 3C).

## O=c1[nH]cc(F)c(=O)[nH]1 [5-FU, 5-Fluorouracil, reference compound]
[1]
  Final Tumor Wt. (mg) +/− SEM: 259.6 ± 36.22 mg

## O=P1(N(CCCl)CCCl)NCCCO1 (stereo not shown) [Cyclophosphamide, reference compound]
Colon 26 adenocarcinoma
  Mean Survival Days (days ± S.D.): 47.9 ± 13.9 days
  T/C (%): 145.1%
Colon 26 adenocarcinoma; listed as cyclophosphamide
  T/C (%): 145%
IMC carcinoma
  Inhibition (%): 70.7%
IMC carcinoma; day 42
  Solid Weight mg ± S.D.: 3620.4 ± 1406.3 mg

## COc1cc(O)c2c(=O)oc(CO)cc2c1 [Cytogenin, 3-hydroxymethyl-6-methoxy-8-hydroxy-1H-2-benzopyran-1-one]
[2]
  Stability: in vivo instability
[3]
  Toxicity: low toxicity
[4]
  Antitumor activity: demonstrated antitumor activities
Cultured tumor cells
  Anti-proliferation inhibitory activity: very low anti-proliferation inhibitory activity

## CC(=O)O[C@H]1C(=O)[C@@]2(C)[C@H]([C@H](OC(=O)c3ccccc3)[C@]3(O)C[C@H](OC(=O)[C@H](O)[C@@H](NC(=O)c4ccccc4)c4ccccc4)C(C)=C1C3(C)C)[C@]1(OC(C)=O)CO[C@@H]1C[C@@H]2O [Taxol, paclitaxel]
[5]
  % Tumor Growth Inhibition: 26.52%
  Final Tumor Ratio (V/Vo) +/− SEM: 4.71 ± 0.76 V/Vo
[5]; n 9
  Mice with Complete Shrinkage: 0
[6]; Taxol 10 mg/kg q7d alone
  Final Tumor Wt. (mg) +/− SEM: 215.6 ± 19.73 mg
[6]; Taxol 10 mg/kg q7d alone, n 9
  Mice with Complete Shrinkage: 0
[6]; listed as Paclitaxel
  % Tumor Growth Inhibition: no tumor growth inhibition
[6]; listed as paclitaxel
  % Tumor Growth Inhibition: minimal effect
[6]; paclitaxel 20 mg/kg, single agent
  Tumor growth inhibition: significant effect on tumor growth inhibition

B1: endostatin: anti-angiogenic protein used for comparison (protein, UniProt P39060 1572-1754, looked up)
Endostatin: HSHRDFQPVLHLVALNSPLSGGMRGIRGADFQCFQQARAVGLAGTFRAFLSSRLQDLYSIVRRADRAAVPIVNLKDELLFPSWEALFSGSEGPLKPGARIFSFDGKDVLRHPTWPQKSVWHGSDPNGRRLTESYCETWRTEAPSATGQASSLLGGRLLGQSAASCHHAYIVLCIENSFMTASK
modifications: Endostatin
notes: anti-angiogenic protein used for comparison
[7]
  Inhibition of HUVEC growth compared with NM-3: Neither angiostatin nor endostatin inhibited HUVEC growth to the extent of NM-3
[8]
  Radiation sensitization of tumors: did not

B2: angiostatin: 38-kDa fragment of plasminogen that selectively inhibits proliferation of endothelial cells; anti-angiogenic protein (protein, UniProt P00747 79-466, looked up)
Angiostatin: NRKSSIIIRMRDVVLFEKKVYLSECKTGNGKNYRGTMSKTKNGITCQKWSSTSPHRPRFSPATHPSEGLEENYCRNPDNDPQGPWCYTTDPEKRYDYCDILECEEECMHCSGENYDGKISKTMSGLECQAWDSQSPHAHGYIPSKFPNKNLKKNYCRNPDRELRPWCFTTDPNKRWELCDIPRCTTPPPSSGPTYQCLKGTGENYRGNVAVTVSGHTCQHWSAQTPHTHNRTPENFPCKNLDENYCRNPDGKRAPWCHTTNSQVRWEYCKIPSCDSSPVSTEQLAPTAPPELTPVVQDCYHGDGQSYRGTSSTTTTGKKCQSWSSMTPHRHQKTPENYPNAGLTMNYCRNPDADKGPWCFTTDPSVRWEYCNLKKCSGTEASVVAPPP
modifications: Angiostatin
notes: anti-angiogenic protein
[7]
  Inhibition of HUVEC growth compared with NM-3: Neither angiostatin nor endostatin inhibited HUVEC growth to the extent of NM-3
[8]
  Radiation sensitization of tumors: some radiation sensitization
